From patent US20230365617A1, “SAPONIN DERIVATIVES FOR USE IN MEDICINE” (priority 2020, published 2023)
Where two headings read alike, the source gives them in different places.

Experiments:
[1] = Critical micellar concentration (CMC) by ANS fluorescence; assay type: physicochemical; details: for CMC compared with the corresponding native/underivatised saponin: qualitative
Description: The critical micellar concentration (CMC) of saponins derived from Saponaria officinalis (SO) (Table A7) and derived from Quillaja saponaria (QS) (Table A8, and Table A9) was determined by the method of DeVendittis et al. (A fluorimetric method for the estimation of the critical micelle concentration of surfactants, Analytical Biochemistry, Volume 115, Issue 2, August 1981, Pages 278-286) as follows:
The emission spectrum of 8-Anilinonaphthalene-1-sulfonic acid (ANS) in either purified water (MQ) or PBS (Dulbecco’s PBS +/+) was determined at dry weight concentrations of saponins ranging from 1 to 1400 µM to cover the range below and above the CMC. Above the CMC, the fluorescence yield of ANS increases and the wavelength of maximum emission decreases due to portioning of the fluorescent dye into micelles. Fluorescence yields were recorded on a Fluoroskan Ascent FL (Thermo Scientific) at an excitation wavelength of 355 nm, and an emission wavelength of 460 nm. 6 µg at a concentration of 75.86 µM of ANS were used per sample and measurement.
The critical micellar concentration (CMC) of saponins was determined by the method of DeVendittis et al. (A fluorimetric method for the estimation of the critical micelle concentration of surfactants, Analytical Biochemistry, Volume 115, Issue 2, August 1981, Pages 278-286) as follows: […]

human red blood cells = experiment: cells; assay type: cell-based; details: Erythrocyte
Description: (§1) Cells were pelleted by centrifugation for 10 min, 800xg at RT.

HeLa cells [2] = experiment: cells; assay type: cell-based, human
Description: (§2) (FIGS. 66A and 66B). Next toxicity was determined, for this the modified saponins were titrated on HeLa and A431 cells. […] Next toxicity was determined, for this the modified saponins were titrated on HeLa and A431 cells.

HeLa cells [3] = experiment: Pilot cell killing bioassay, saponin with or without 1.5 pM dianthin-EGF, 72 h; assay type: cell-based, human; design: key: Cell killing activity (+ or -); Cell killing activity (+ or -)
Description: HeLa cells were incubated for 72 h with the following constructs and cell viability before and after the 72 h-incubation was assessed. In the experiments, cells were exposed to 1.5 pM dianthin-EGF conjugate. A negative control were cells incubated with buffer vehicle and 10 microgram/ml saponin, without dianthin-EGF. Cell viability was set to 100% for the control in which both saponin and EGF-dianthin were omitted. […] Cell viability after 72 h was essentially 0%. For the chemically modified saponin variants, 10 microgram/ml saponin was tested in combination with 1.5 pM dianthin-EGF.

A431 cells = experiment: cells; assay type: cell-based; details: Homo sapiens, A-431, saponin alone, read-out: IC50 toxicity on A431 cells
Description: as §2

in vitro = assay type: cell-based, human; details: human red blood cells; read-out: IC50 hemolytic activity
Description: as §1

[4] = tested on: A431 cells (EGFR expressing); experiment: Cell viability, saponin titration with or without […] EGFdianthin; assay type: cell-based, human
[5] = tested on: A2058 cells (EGFR non-expressing); experiment: as above; assay type: cell-based, human; details: saponin as single compound
[6] = SO1831 and Aescin, determined in PBS (Table A11)
[7] = 10 µg/ml SO1861 or SO1861-derivative + […] EGFdianthin
[8] = 10 µg/ml SO1861 or SO1861-derivative alone
[9] = SO saponins, determined in PBS (Table A7)
[10] = HeLa cells, saponin alone (Table A5), read-out: IC50 nM (Toxicity)

Aescin [Aescin (95%), reference compound]
CMC [1, 6]: 130 ± 13 µM

CC[C@H](C)[C@H](C[C@H](O)CC(=O)OC1C(C)OC(OC(=O)[C@]23CCC(C)(C)CC2C2=CCC4[C@@]5(C)CC[C@H](OC6OC(C(=O)O)C(O)C(OC7OCC(O)C(O)C7O)C6OC6OC(CO)C(O)C(O)C6O)[C@@](C)(/C=N/NC(=O)CCCCCN6C(=O)C=CC6=O)C5CC[C@@]4(C)[C@]2(C)C[C@H]3O)C(OC2OC(C)C(OC3OCC(O)C(OC4OCC(O)(CO)C4O)C3O)C(O)C2O)C1O)OC(=O)C[C@@H](O)C[C@H](OC1OC(CO)C(O)C1O)[C@@H](C)CC (stereo partly shown) [QS21-Ald-EMCH]
IC50 (human red blood cells; Homo sapiens, read-out: IC50 hemolytic activity, human red blood cells): 30000 nM | IC50 (HeLa cells [2]; Homo sapiens, HeLa, read-out: IC50 nM (Toxicity), HeLa cells (Table A12, Example 8)): > 30000 nM

CC(=O)On1nnc2cccnc21 [SO1861-Glu-HATU]
Cell killing activity (+ or -) (HeLa cells [3]; [7]): + | Cell killing activity (+ or -) (HeLa cells [3]; [8]): -

CC(=O)OC1C(C)OC(OC2C(C)OC(OC(=O)[C@]34CCC(C)(C)CC3C3=CCC5[C@@]6(C)CC[C@H](OC7OC(C(=O)NCCN8C(=O)C=CC8=O)C(O)C(OC8OCC(O)C(O)C8O)C7OC7OC(CO)C(O)C(O)C7O)[C@@](C)(CO)C6CC[C@@]5(C)[C@]3(C)C[C@H]4O)C(OC3OC(C)C(OC4OCC(O)C(OC5OC(CO)C(O)C(O)C5O)C4O)C(O)C3O)C2O)C(O)C1OC1OCC(O)C(O)C1O (stereo partly shown) [SO1861-(Glu-AEM)-(Ald-OH)]
CMC [1, 9]: 90 ± 10 µM | CMC compared with the corresponding native/underivatised saponin [1]: lower CMC values

CC[C@H](C)[C@H](C[C@H](O)CC(=O)OC1C(C)OC(OC(=O)[C@]23CCC(C)(C)CC2C2=CCC4[C@@]5(C)CC[C@H](OC6OC(C(=O)NC(C)(CO)CO)C(O)C(OC7OCC(O)C(O)C7O)C6OC6OC(CO)C(O)C(O)C6O)[C@@](C)(/C=N/NC(=O)CCCCCN6C(=O)C=CC6=O)C5CC[C@@]4(C)[C@]2(C)C[C@H]3O)C(OC2OC(C)C(OC3OCC(O)C(OC4OCC(O)(CO)C4O)C3O)C(O)C2O)C1O)OC(=O)C[C@@H](O)C[C@H](OC1OC(CO)C(O)C1O)[C@@H](C)CC (stereo partly shown) [QS21-(Ald-EMCH)-(Glu-AMPD)]
IC50 (A431 cells): > 30 µM | HC50 (in vitro): > 1 mM | IC50 (human red blood cells; human red blood cells (Table A12, Example 8), read-out: IC50 nM (hemolysis)): > 300000 nM | IC50 (human red blood cells; human red blood cells, read-out: IC50 hemolytic activity): > 300000 nM | IC50 (HeLa cells [2]; Homo sapiens, HeLa cells (Table A12, Example 8), read-out: IC50 nM (Toxicity)): > 30000 nM | IC50 (HeLa cells [2]; Homo sapiens, HeLa, saponin alone, read-out: IC50 toxicity on HeLa cells): > 30000 nM

CC(=O)OC1C(C)OC(OC2C(C)OC(OC(=O)C34CCC(C)(C)CC3C3=CCC5C6(C)CCC(OC7OC(C(=O)O)C(O)C(OC8OCC(O)C(O)C8O)C7OC7OC(CO)C(O)C(O)C7O)C(C)(C=NNC(=O)CCOCCOCCOCCOCCN=[N+]=[N-])C6CCC5(C)C3(C)CC4O)C(OC3OC(C)C(OC4OCC(O)C(OC5OC(CO)C(O)C(O)C5O)C4O)C(O)C3O)C2O)C(O)C1OC1OCC(O)C(O)C1O (stereo not shown)
Cell killing activity (+ or -) (HeLa cells [3]; [8]): - | IC50 ([4]; read-out: general toxicity in absence of EGFdianthin, saponin as single compound): > 10 µM

Aescin [Aescin (98%), reference compound]
CMC [1, 6]: 135 ± 14 µM

CC(=O)OC1C(C)OC(OC2C(C)OC(OC(=O)[C@]34CCC(C)(C)CC3C3=CCC5[C@@]6(C)CC[C@H](OC7OC(C(=O)O)C(O)C(OC8OCC(O)C(O)C8O)C7OC7OC(CO)C(O)C(O)C7O)[C@@](C)(/C=N/NC(=O)CCCCCN7C(=O)C[C@H](SCCO)C7=O)C6CC[C@@]5(C)[C@]3(C)CC4O)C(OC3OC(C)C(OC4OCC(O)C(OC5OC(CO)C(O)C(O)C5O)C4O)C(O)C3O)C2O)C(O)C1OC1OCC(O)C(O)C1O (stereo partly shown) [SO1861-Ald-EMCH-blocked]
CMC [1, 9]: 50 ± 5 µM | IC50 (HeLa cells [2]; [10]): > 100000 nM

CC(=O)OC1C(C)OC(OC2C(C)OC(OC(=O)[C@]34CCC(C)(C)CC3C3=CCC5[C@@]6(C)CC[C@H](OC7OC(C(=O)O)C(O)C(OC8OCC(O)C(O)C8O)C7OC7OC(CO)C(O)C(O)C7O)[C@@](C)(C=O)C6CC[C@@]5(C)[C@]3(C)C[C@H]4O)C(OC3OC(C)C(OC4OCC(O)C(OC5OC(CO)C(O)C(O)C5O)C4O)C(O)C3O)C2O)C(O)C1OC1OCC(O)C(O)C1O (stereo partly shown) [SO1861, reference compound]
Cell killing activity (+ or -) (HeLa cells [3]; [7]): + | Cell killing activity (+ or -) (HeLa cells [3]; [8]): - | general toxicity in absence of EGFdianthin [5]: strong cell viability reduction | general toxicity in absence of EGFdianthin ([4]; saponin as single compound): strong cell viability reduction | CMC ([1]; SO1861 saponins): 185 µM | CMC [1, 9]: 185 ± 19 µM

CC(=O)OC1C(C)OC(OC2C(C)OC(OC(=O)C34CCC(C)(C)CC3C3=CCC5C6(C)CCC(OC7OC(C(=O)NC(C)(CO)CO)C(O)C(OC8OCC(O)C(O)C8O)C7OC7OC(CO)C(O)C(O)C7O)C(C)(C=NNC(=O)CCCCCN7C(=O)C=CC7=O)C6CCC5(C)C3(C)CC4O)C(OC3OC(C)C(OC4OCC(O)C(OC5OC(CO)C(O)C(O)C5O)C4O)C(O)C3O)C2O)C(O)C1OC1OCC(O)C(O)C1O (stereo not shown) [SO1861-(Ald-EMCH)-(Glu-AMPD)]
CMC [1, 9]: > 30 µM | CMC compared with the corresponding native/underivatised saponin [1]: lower CMC values

CC(=O)OC1C(C)OC(OC2C(C)OC(OC(=O)[C@]34CCC(C)(C)CC3C3=CCC5[C@@]6(C)CC[C@H](OC7OC(C(=O)O)C(O)C(OC8OCC(O)C(O)C8O)C7OC7OC(CO)C(O)C(O)C7O)[C@@](C)(CO)C6CC[C@@]5(C)[C@]3(C)C[C@H]4O)C(OC3OC(C)C(OC4OCC(O)C(OC5OC(CO)C(O)C(O)C5O)C4O)C(O)C3O)C2O)C(O)C1OC1OCC(O)C(O)C1O (stereo partly shown) [SO1861-Ald-OH]
CMC [1, 9]: 135 ± 14 µM | CMC compared with the corresponding native/underivatised saponin [1]: higher CMC values | CMC compared with the corresponding native/underivatised saponin ([1]; listed as 6): increased CMC

CC(=O)OC1C(C)OC(OC2C(C)OC(OC(=O)[C@]34CCC(C)(C)CC3C3=CCC5[C@@]6(C)CC[C@H](OC7OC(C(=O)NC(C)(CO)CO)C(O)C(OC8OCC(O)C(O)C8O)C7OC7OC(CO)C(O)C(O)C7O)[C@@](C)(CO)C6CC[C@@]5(C)[C@]3(C)C[C@H]4O)C(OC3OC(C)C(OC4OCC(O)C(OC5OC(CO)C(O)C(O)C5O)C4O)C(O)C3O)C2O)C(O)C1OC1OCC(O)C(O)C1O (stereo partly shown) [SO1861-(Ald-OH)-(Glu-AMPD)]
CMC [1, 9]: 50 ± 5 µM | CMC compared with the corresponding native/underivatised saponin [1]: lower CMC values

CC(=O)OC1C(C)OC(OC2C(C)OC(OC(=O)[C@]34CCC(C)(C)CC3C3=CCC5[C@@]6(C)CC[C@H](OC7OC(C(=O)NC(C)(CO)CO)C(O)C(OC8OCC(O)C(O)C8O)C7OC7OC(CO)C(O)C(O)C7O)[C@@](C)(C=O)C6CC[C@@]5(C)[C@]3(C)C[C@H]4O)C(OC3OC(C)C(OC4OCC(O)C(OC5OC(CO)C(O)C(O)C5O)C4O)C(O)C3O)C2O)C(O)C1OC1OC(C)C(O)C(O)C1O (stereo partly shown) [SO1861-Glu-AMPD]
CMC [1, 9]: 50 ± 5 µM | CMC compared with the corresponding native/underivatised saponin [1]: lower CMC values

QS21 [reference compound]
CMC ([1]; QS saponins (Table A8, MQ)): 49 µM | CMC ([1]; QS saponins, determined in purified water (MQ) (Table A8)): 49 ± 5 µM | CMC ([1]; in MQ (Table A9)): 49 ± 5 µM | CMC ([1]; modified QS21 saponins, determined in PBS (Table A9)): 40 ± 5 µM

CC(=O)OC1C(C)OC(OC2C(C)OC(OC(=O)[C@]34CCC(C)(C)CC3C3=CCC5[C@@]6(C)CC[C@H](OC7OC(C(=O)NCCN8C(=O)C=CC8=O)C(O)C(OC8OCC(O)C(O)C8O)C7OC7OC(CO)C(O)C(O)C7O)[C@@](C)(C=O)C6CC[C@@]5(C)[C@]3(C)C[C@H]4O)C(OC3OC(C)C(OC4OCC(O)C(OC5OC(CO)C(O)C(O)C5O)C4O)C(O)C3O)C2O)C(O)C1OC1OCC(O)C(O)C1O (stereo partly shown) [SO1861-Glu-AEM]
CMC [1, 9]: 45 ± 5 µM | CMC compared with the corresponding native/underivatised saponin [1]: lower CMC values | IC50 (HeLa cells [2]; [10]): > 100000 nM
